{"source": "patent US20090030075A1", "about": "“Remedy for and Method of Treating Ischemic Cerebral Stroke” (priority 2005, published 2009)", "origin": "cited, not measured here", "test_system": "cerebral infarction lesion", "details": "FR139317 used together with SUN9216", "data": [{"smiles": "CC(C)C[C@H](NC(=O)N1CCCCCC1)C(=O)N[C@H](Cc1cn(C)c2ccccc12)C(=O)N[C@H](Cc1ccccn1)C(=O)O", "note": "[FR139317]", "values": [{"measurement": "activity of inhibiting development of a cerebral infarction lesion", "value": "this effect disappears"}]}]}
